In article PMC10805834, “Population pharmacokinetic modeling of ilaprazole in healthy subjects and patients with duodenal ulcer in China” (Frontiers in Pharmacology, 2024):
Where two headings read alike, the source gives them in different places.

Key:
[1] = design: method as in Wang et al., 2019; conditions: ref Wang et al., 2019, cited from earlier work
[2] = design: method as in Shen et al., 2020; Jiang et al., 2021; conditions: rats; intravenous injection of 14C-ilaprazole; ref Shen et al., 2020; Jiang et al., 2021; cited from earlier work
[3] = cited from earlier work
[4] = design: method as in Sachs et al., 2006; Shin et al., 2014; conditions: ref Sachs et al., 2006; Shin et al., 2014; cited from earlier work
[5] = Population pharmacokinetic (PopPK) model of ilaprazole, intravenous infusion, pooled data of 4 phase I and 1 phase IIa trials; assay type: in vivo, human; design: Disease status effect on Vp (Disease status = 1): scale not given here; key to ω^2 Vp, inter-individual variability / ω^2 CL, inter-individual variability: variance ω^2 of log-normal (exponential) inter-individual random effect η
From the text: Data used to construct the PopPK model in current study were collected from 5 clinical trials of ilaprazole injection, including 4 phase I (No. CTR20132848, No. CTR20140147, No. CTR20150686, No. CTR20150685) clinical trials in healthy subjects, and 1 phase IIa (No. CTR20132846) clinical trial in patients with duodenal ulcer ([Wang et al., 2016a]; [Wang et al., 2016b]; [Wang et al., 2019]). All above studies included in this analysis were reviewed and approved by the Institutional Ethics Committee, registered in the China Clinical Trials Registry Center (chinadrugtrials.org.cn), and conducted in strict adherence to Good Clinical Practice and the Declaration of Helsinki.
The single-dose phase I study (No. CTR20132848) was a randomized, open, four-cycle crossover trial in which 16 healthy subjects were randomized into four groups and were given either oral control drug or intravenous infusion of 5, 10 or 20 mg of ilaprazole during different cycles, after a 1-week washout period, and then separately after crossover. In the multiple-dose phase I study (No. CTR20140147), 10 healthy subjects received a 5-day continuous intravenous infusion of 10 mg ilaprazole once daily. The next studies (No. CTR20150686, No. CTR20150685) were conducted in healthy subjects with a single 30 mg intravenous infusion of ilaprazole, and a 20 mg loading dose combined with a 10 mg maintenance dose for a total of 3 days of intravenous infusion of ilaprazole. In the phase IIa study (No. CTR20132846), 20 patients with duodenal ulcer were randomized to receive a 20 mg loading dose plus a 10 mg maintenance dose of intravenous infusion of ilaprazole once daily or a positive control drug.
Blood samples were collected for clinical pharmacokinetic analysis of ilaprazole in all studies, and the specific sampling designs are summarized in Table 1. To determine the concentration of ilaprazole in human plasma, a validated UPLC-MS/MS method was utilized, with the samples being processed by protein precipitation ([Wang et al., 2012]). The analytes were chromatographed on Acquity UPLC BEH C18 column (waters, MA, United States), and the detection was performed on Xevo-TQS tandem mass spectrometer coupled with an electro-spray ionization (ESI) source (waters, MA, United States). It is notable that ilaprazole concentration remained linear in the range of 1–1,000 ng/mL, with the lower limit of quantification of 1 ng/mL. After excluding 5 concentrations below the limit of quantification (BLQ) and 7 concentrations not detected (ND), a total of 1,560 plasma concentration from 58 subjects who received intravenous infusion of ilaprazole were included in the final PopPK analysis.
Based on the pooled data from the clinical studies mentioned above, the PopPK model for ilaprazole was constructed using non-linear mixed-effects model of Phoenix NLME (version 8.3; Certara Inc, Princeton, NJ, United States). We developed the PopPK model using the first-order conditional estimation extended least squares (FOCE-ELS) method. The specific modeling steps are as follows.
For the basic structural model, one-compartment and two-compartment models were tested to fit the data set according to the plasma concentration-time profile of ilaprazole, plotted on a semi-logarithmic scale. Based on the fact that the distribution of the population pharmacokinetic (PK) parameters essentially conforms to a log-normal distribution, the inter-individual variability in pharmacokinetic parameters was estimated by an exponential model (Eq. 1). Pik=Ppoppk*exp ηik (1)
In Eq. 1, Pik represents the kth pharmacokinetic parameter for the ith individual, Ppopk represents the typical value of the parameter in population, and ηik depicts the deviation between the kth pharmacokinetic parameter of the ith individual and the typical value of the population (i.e., random effect), It is assumed that η follows a normal distribution centered at 0 with variance ω^2. […]

[6] = cited from earlier work; remark: listed apart in the source

- CL, clearance of central compartment ([5]; bootstrap median (n = 1,000)): 3.394 L/h
- V, volume of central compartment ([5]; bootstrap median (n = 1,000)): 6.819 L
- Vp, volume of peripheral compartment ([5]; bootstrap median (n = 1,000)): 5.480 L
- WT effect on Vp ([5]; bootstrap median (n = 1,000)): 1.573
- σmult, residual variability ([5]; bootstrap median (n = 1,000)): 0.182
- ω^2 CL, inter-individual variability ([5]; bootstrap median (n = 1,000)): 0.057
- ω^2 V, inter-individual variability ([5]; bootstrap median (n = 1,000)): 0.013
- ω^2 Vp, inter-individual variability ([5]; bootstrap median (n = 1,000)): 0.033
- clearance ([5]; both sexes, human, plasma, intravenous, final model estimate, read-out: CL, clearance of central compartment, typical value (converted)): 56.6 mL/min
- ω^2 CL, inter-individual variability ([5]; final model estimate): 0.059
- ω^2 V, inter-individual variability ([5]; final model estimate): 0.013
- ω^2 Vp, inter-individual variability ([5]; final model estimate): 0.032
- Vp, volume of peripheral compartment, typical value ([5]; final model estimate, median weight 60.6 kg): 5.544 L
- σmult, residual variability ([5]; final model estimate, multiplicative residual error): 0.184
- WT effect on Vp ([5]; final model estimate, power exponent on Weight/60.6): 1.545
Structure (SMILES): COc1ccnc(C[S+]([O-])c2nc3cc(-n4cccc4)ccc3[nH]2)c1C (centres unmarked) [ilaprazole, 2-[[(4-methoxy-3-methyl)-2-pyridinyl]methyl-sulfinyl]-5-(1H-pyrol-1-yl)-1H-benzimidazole]
- AUC0‐∞ ([1]; duodenal ulcers patients): 4.9 µg·h/mL
- Cmax ([1]; duodenal ulcers patients): 1,540 ng/mL
- AUC0‐∞ ([1]; healthy subjects): 7.4 µg·h/mL
- Cmax ([1]; healthy subjects): 1871.3 ng/mL
- radioactive signal in tissues/organs [2]: can still be observed in the stomach after 24 h
- plasma protein binding capacity [3]: more than 97%
- half-life (t1/2) [4]: 4.7 to 5.3 h
- Disease status effect on Vp (Disease status = 1) ([5]; bootstrap median (n = 1,000), duodenal ulcer): 0.356
- Disease status effect on Vp (Disease status = 1) ([5]; final model estimate, Disease status = 1 for duodenal ulcer): 0.356
- V, volume of central compartment, typical value ([5]; final model estimate, IV infusion, Chinese healthy subjects and duodenal ulcer patients): 6.795 L
- LogP [6]: 3.04
